Experimental data: ChEMBL document CHEMBL3865846, “Synthesis and biological evaluation of ricinoleic acid-based lipoamino acid derivatives” (Bioorg Med Chem Lett, 2016)
In brackets after ≈: the same amount, converted by molar mass.

Columns and labels:
Format in all cases: functional
Staphylococcus aureus [1] = test: Antimicrobial activity against Staphylococcus aureus MTCC96 measured after 24 hrs by well-diffusion method; conditions: MTCC96, 24 h
Pseudomonas aeruginosa = test: Antimicrobial activity against Pseudomonas aeruginosa MTCCM2453 measured after 24 hrs by well-diffusion method; conditions: MTCCM2453, 24 h
Candida albicans [2] = test: Antimicrobial activity against Candida albicans MTCC3017 measured after 24 hrs by well-diffusion method; conditions: MTCC3017, 24 h
Staphylococcus aureus [3] = test: Antimicrobial activity against Staphylococcus aureus MLS16 MTCC2940 measured after 24 hrs by well-diffusion method; conditions: MLS16 MTCC2940, 24 h
Candida albicans [4] = test: Antimicrobial activity against Candida albicans MTCC4748 measured after 24 hrs by well-diffusion method; conditions: MTCC4748, 24 h
Candida albicans [5] = test: Antimicrobial activity against Candida albicans MTCC3958 measured after 24 hrs by well-diffusion method; conditions: MTCC3958, 24 h
Candida albicans [6] = test: Antimicrobial activity against Candida albicans MTCC1637 measured after 24 hrs by well-diffusion method; conditions: MTCC1637, 24 h
Micrococcus luteus [7] = test: Antimicrobial activity against Micrococcus luteus MTCC2470 measured after 24 hrs by well-diffusion method; conditions: MTCC2470, 24 h
Candida albicans [8] = test: Antimicrobial activity against Candida albicans MTCC183 measured after 24 hrs by well-diffusion method; conditions: MTCC183, 24 h
Candida albicans [9] = test: Antimicrobial activity against Candida albicans MTCC227 measured after 24 hrs by well-diffusion method; conditions: MTCC227, 24 h
Escherichia coli = test: Antimicrobial activity against Escherichia coli MTCC739 measured after 24 hrs by well-diffusion method; conditions: MTCC739, 24 h
Candida albicans [10] = test: Antimicrobial activity against Candida albicans MTCC7315 measured after 24 hrs by well-diffusion method; conditions: MTCC7315, 24 h
Candida albicans [11] = test: Antimicrobial activity against Candida albicans MTCC3018 measured after 24 hrs by well-diffusion method; conditions: MTCC3018, 24 h
Raoultella planticola = test: Antimicrobial activity against Klebsiella planticola MTCC530 measured after 24 hrs by well-diffusion method; conditions: MTCC530, 24 h
Candida albicans [12] = test: Antimicrobial activity against Candida albicans MTCC854 measured after 24 hrs by well-diffusion method; conditions: MTCC854, 24 h
Bacillus subtilis [13] = test: Antimicrobial activity against Bacillus subtilis MTCC121 measured after 24 hrs by well-diffusion method; conditions: MTCC121, 24 h
Bacillus subtilis [14] = test: Bactericidal activity against Bacillus subtilis MTCC121 measured after 24 hrs; conditions: MTCC121, 24 h
Staphylococcus aureus [15] = test: Bactericidal activity against Staphylococcus aureus MLS16 MTCC2940 measured after 24 hrs; conditions: MLS16 MTCC2940, 24 h
Micrococcus luteus [16] = test: Bactericidal activity against Micrococcus luteus MTCC2470 measured after 24 hrs; conditions: MTCC2470, 24 h
Staphylococcus aureus [17] = test: Bactericidal activity against Staphylococcus aureus MTCC96 measured after 24 hrs; conditions: MTCC96, 24 h
Candida parapsilosis = test: Antimicrobial activity against Candida parapsilosis MTCC1744 measured after 24 hrs by well-diffusion method; conditions: Lodderomyces parapsilosis, MTCC1744, 24 h

SMILES	MIC (Staphylococcus aureus [1]) [µg/mL]	MIC (Pseudomonas aeruginosa) [µg/mL]	MIC (Candida albicans [2]) [µg/mL]	MIC (Staphylococcus aureus [3]) [µg/mL]	MIC (Candida albicans [4]) [µg/mL]	MIC (Candida albicans [5]) [µg/mL]	MIC (Candida albicans [6]) [µg/mL]	MIC (Micrococcus luteus [7]) [µg/mL]	MIC (Candida albicans [8]) [µg/mL]	MIC (Candida albicans [9]) [µg/mL]	MIC (Escherichia coli) [µg/mL]	MIC (Candida albicans [10]) [µg/mL]	MIC (Candida albicans [11]) [µg/mL]	MIC (Raoultella planticola) [µg/mL]	MIC (Candida albicans [12]) [µg/mL]	MIC (Bacillus subtilis [13]) [µg/mL]	MBC (Bacillus subtilis [14]) [µg/mL]	MBC (Staphylococcus aureus [15]) [µg/mL]	MBC (Micrococcus luteus [16]) [µg/mL]	MBC (Staphylococcus aureus [17]) [µg/mL]	further results
CCCCCCC(C/C=C\CCCCCCCC(=O)OC)NC(=O)[C@@H](N)C(C)C (some centres undefined)	> 125	> 125	> 125	> 125	> 125	> 125	> 125	> 125	> 125	> 125	> 125	> 125	> 125	> 125	> 125	> 125	–	–	–	–	–
CCCCCCC(C/C=C\CCCCCCCC(=O)OC)NC(=O)[C@@H]1CCCN1 (some centres undefined)	15.6 (≈ 38.2 µM)	> 125	31.2 (≈ 76.4 µM)	31.2 (≈ 76.4 µM)	31.2 (≈ 76.4 µM)	31.2 (≈ 76.4 µM)	31.2 (≈ 76.4 µM)	15.6 (≈ 38.2 µM)	31.2 (≈ 76.4 µM)	31.2 (≈ 76.4 µM)	> 125	31.2 (≈ 76.4 µM)	31.2 (≈ 76.4 µM)	> 125	31.2 (≈ 76.4 µM)	15.6 (≈ 38.2 µM)	31.2 (≈ 76.4 µM)	31.2 (≈ 76.4 µM)	31.2 (≈ 76.4 µM)	31.2 (≈ 76.4 µM)	–
CCCCCCC(C/C=C\CCCCCCCC(=O)OC)NC(=O)[C@@H](N)CC(C)C (some centres undefined)	> 125	> 125	> 125	> 125	> 125	> 125	> 125	> 125	> 125	> 125	> 125	> 125	> 125	> 125	> 125	> 125	–	–	–	–	–
CCCCCCC(C/C=C\CCCCCCCC(=O)OC)NC(=O)[C@@H](N)Cc1ccccc1 (some centres undefined)	> 125	> 125	> 125	> 125	> 125	> 125	> 125	> 125	> 125	> 125	> 125	> 125	> 125	> 125	> 125	> 125	–	–	–	–	–
CCCCCCC(C/C=C\CCCCCCCC(=O)OC)NC(=O)[C@H](C)N (some centres undefined)	7.8 (≈ 20.4 µM)	> 125	15.6 (≈ 40.8 µM)	15.6 (≈ 40.8 µM)	15.6 (≈ 40.8 µM)	7.8 (≈ 20.4 µM)	15.6 (≈ 40.8 µM)	31.2 (≈ 81.5 µM)	15.6 (≈ 40.8 µM)	15.6 (≈ 40.8 µM)	> 125	15.6 (≈ 40.8 µM)	15.6 (≈ 40.8 µM)	> 125	15.6 (≈ 40.8 µM)	15.6 (≈ 40.8 µM)	15.6 (≈ 40.8 µM)	15.6 (≈ 40.8 µM)	15.6 (≈ 40.8 µM)	15.6 (≈ 40.8 µM)	MIC (Candida parapsilosis): 7.8 µg/mL (≈ 20.4 µM)
